Results: BindingDB's records for doi:10.1021/jm0004906 (Glaxosmithkline, 2001)

Target: T1, Gag-Pol polyprotein [588-1027]/[588-1147] (Human immunodeficiency virus 1, UniProt P04585)
T1 construct: 588-1027; 588-1147
Assay: HIV-1 RT Assay
From the text: The IC50 of reverse transcriptase is the concentration that inhibits 50% of recombinant HIV-1 RT RNA-directed DNA polymerase activity in vitro.

Structure (SMILES) | IC50 [µM] | IC50 (pH 8) [µM]
N#Cc1c(N)cccc1[S+]([O-])c1ccccc1Br (stereo not given) [2-amino-6-[(2-bromobenzene)sulfinyl]benzonitrile] | > 19 | 
N#Cc1c(N)cccc1Sc1ccccc1Br [2-amino-6-[(2-bromophenyl)sulfanyl]benzonitrile] |  | > 21
Cc1ccccc1[S+]([O-])c1cccc(N)c1C#N (stereo not given) [2-amino-6-[(2-methylbenzene)sulfinyl]benzonitrile] | > 21 | 
N#Cc1c(N)cccc1Sc1cccc(N)c1 [2-amino-6-[(3-aminophenyl)sulfanyl]benzonitrile] |  | > 23
N#Cc1cccc([S+]([O-])c2cccc(N)c2C#N)c1 (stereo not given) [2-amino-6-[(3-cyanobenzene)sulfinyl]benzonitrile] | > 15 | 
N#Cc1c(N)cccc1[S+]([O-])c1ccc(Br)cc1 (stereo not given) [2-amino-6-[(4-bromobenzene)sulfinyl]benzonitrile] | > 21 | 
N#Cc1c(N)cccc1S(=O)(=O)c1ccc(Br)cc1 [2-amino-6-[(4-bromobenzene)sulfonyl]benzonitrile] | > 14 | 
N#Cc1ccc([S+]([O-])c2cccc(N)c2C#N)cc1 (stereo not given) [2-amino-6-[(4-cyanobenzene)sulfinyl]benzonitrile] | > 23 | 
N#Cc1ccc(S(=O)(=O)c2cccc(N)c2C#N)cc1 [2-amino-6-[(4-cyanobenzene)sulfonyl]benzonitrile] | > 18 | 
N#Cc1ccc(Sc2cccc(N)c2C#N)cc1 [2-amino-6-[(4-cyanophenyl)sulfanyl]benzonitrile] |  | > 19
COc1ccc([S+]([O-])c2cccc(N)c2C#N)cc1 (stereo not given) [2-amino-6-[(4-methoxybenzene)sulfinyl]benzonitrile] | > 20 | 
COc1ccc(Sc2cccc(N)c2C#N)cc1 [2-amino-6-[(4-methoxyphenyl)sulfanyl]benzonitrile] |  | > 17
Cc1ccc([S+]([O-])c2cccc(N)c2C#N)cc1 (stereo not given) [2-amino-6-[(4-methylbenzene)sulfinyl]benzonitrile] | > 21 | 
N#Cc1c(N)cccc1[S+]([O-])c1cccc(C(F)(F)F)c1 (stereo not given) [2-amino-6-{[3-(trifluoromethyl)benzene]sulfinyl}benzonitrile] | > 22 | 
O=[N+]([O-])c1ccccc1Sc1ccccc1[N+](=O)[O-] [Bisnitrophenylsulfide] |  | > 20
